Read-outs that look alike come from different tables or passages of the source.

In general, IC50 refers to the midpoint of a concentration-inhibition curve.

Holding throughout (format): cell-based
One assay concerns Vx-2 cell line. As to the kind of experiment: ATP dependent luminescence cell viability assay, VX2. To be noted: for IC50: Vx-2, read-out: IC50 (ATP depletion). An excerpt: (§1) The non-small cell lung cancer (NSCLC) cell line NCI-H1299, the breast cancer cell lines MCF7 and MDA MB 231 and the Hep3B, Hep2G and SK-Hep1 cells were obtained from the American Type Culture Collection (ATCC) (Manassas, Va., USA) and maintained as a monolayer culture in Eagle's minimum essential medium (MEM, Invitrogen, Gaithersburg, Md., USA) supplemented with 10% fetal bovine serum at 37 C and 5% CO2. All treatments were done in triplicate samples on 96-well plates. VX2 cells were maintained as described in Geschwind et al., Cancer Res., 62:3909-3913 (2002).
Cytotoxicity of 3-BrPA was evaluated by the IC50 values, representing the drug concentration which depletes ATP by 50% compared to non-treated control. On day 1, cells were seeded into 96-well plates in a volume of 100 μl per well. On day 2, the medium of all wells was removed and an aliquot of 100 μl of media having serial dilutions of 3-BrPA in PBS, NaHCO3, NaOH, KOH and KHCO3 was added to the appropriate well. […] Briefly, 100 μl assay reagent was added to each well and mixed at room temperature for 2 min to develop luminescent signal. The luminescence intensity (cps) from each sample was determined with a spectrometer (Model Victor III, Perkin Elmer, Mass.). Relative luminescence was calculated in proportion to the numbers of living cells per sample well. The results are expressed as the mean of three independent experiments. The intracellular ATP contents were calculated and normalized by equal cell number and expressed as the percentage of the control cells. The IC50 values were estimated graphically from dose-response plots.
The efficacy of 3-BrPA in the treatment of liver cancer cells was further tested using the cancer cell lines Hep3B, HepG2, SK-Hep1 and VX2. […]
(§2) The effects on cell viability and cellular metabolism of 3-BrPA on Hep3B and VX2 cells were examined using luminescence ATP assays, as described above. […]

Assay [1] has as its system Hep3B, HepG2, SK-Hep1 and VX2 cells. Kind of assay: Annexin V apoptosis assay (flow cytometry and fluorescent microscopy). Here is the method:
The apoptosis of 3-BrPA treated cells was evaluated using Annexin V staining and the formation of active caspase-3. Cells treated with 3-BrPA were stained with anti-Annexin V and analyzed by flow cytometry as well as fluorescent microscopy. Flow cytometry was performed using a Becton-Dickinson FACSCalibur. The gating was done based on unstained control cells, Annexin V—PE stained and 7-AAD stained control cells. For fluorescent microscopy, Annexin V staining was performed using Annexin V staining Microscopy kit (BD Biosciences, USA) according to the protocol recommended by the manufacturer. In brief, cells grown in chambered slides were treated with either 3BrPA or the vehicle, washed once with ice-cold PBS followed by two washes with binding buffer, at the end of the treatment period. Cells were then incubated with the FITC-conjugated Annexin V fluorescent antibody for 15 min followed by a gentle wash. The cells were kept in binding buffer and images were observed captured using a Zeiss Axiovert 200 Microscope (Carl Zeiss Microimaging Inc., USA). Active caspase-3, an apoptotic marker, was identified by western blot analysis. Lysates prepared from equal numbers of cells treated with different concentrations of 3BrPA were subjected to SDS-PAGE electrophoresis and immunoblotting against active (cleaved) caspase-3.
In order to confirm that the cytotoxic effects of 3BrPA involves cellular apoptotic pathways, Annexin V levels and Caspase-3 activation was examined in cells treated with 3-BrPA. […] Additionally, immunoblotting of cell lysates with activated-Caspase-3 specific antibodies confirmed the activation of caspase-3 during 3BrPA mediated cell death (FIG. 8).

The next assay concerns MCF7 cells. Kind of assay: Luminescence ATP assay, MCF7. Here is the method: Cytotoxicity of 3-BrPA was evaluated by the IC50 values, representing the drug concentration which depletes ATP by 50% compared to non-treated control. On day 1, cells were seeded into 96-well plates in a volume of 100 μl per well. On day 2, the medium of all wells was removed and an aliquot of 100 μl of media having serial dilutions of 3-BrPA in PBS, NaHCO3, NaOH, KOH and KHCO3 was added to the appropriate well. After 24 h of drug exposure cytotoxic effects of 3-BrPA were monitored by cellular ATP level using CellTiter-Glo™ assay reagents from Promega Corp (Madison, Wis.). Briefly, 100 μl assay reagent was added to each well and mixed at room temperature for 2 min to develop luminescent signal. The luminescence intensity (cps) from each sample was determined with a spectrometer (Model Victor III, Perkin Elmer, Mass.). Relative luminescence was calculated in proportion to the numbers of living cells per sample well. The results are expressed as the mean of three independent experiments. The intracellular ATP contents were calculated and normalized by equal cell number and expressed as the percentage of the control cells. The IC50 values were estimated graphically from dose-response plots.
The anti-metabolic effect of 3-BrPA on MCF7 and MDA MB231 cells was examined using luminescence ATP assays, as described above. […]

A further assay relates to Hep3B cells. As to the kind of experiment: ATP dependent luminescence cell viability assay, Hep3B.
Text: as §1
(§3) Cytotoxicity of 3-BrPA was evaluated by the IC50 values, representing the drug concentration which depletes ATP by 50% compared to non-treated control. On day 1, cells were seeded into 96-well plates in a volume of 100 μl per well. On day 2, the medium of all wells was removed and an aliquot of 100 μl of media having serial dilutions of 3-BrPA in PBS, NaHCO3, NaOH, KOH and KHCO3 was added to the appropriate well. […] Briefly, 100 μl assay reagent was added to each well and mixed at room temperature for 2 min to develop luminescent signal. The luminescence intensity (cps) from each sample was determined with a spectrometer (Model Victor III, Perkin Elmer, Mass.). […]
as §2

A further assay concerns SK-Hep 1 cells. As to the kind of experiment: ATP dependent luminescence cell viability assay, SK-Hep1.
Text: as §1, §3, §2

In the case of `O=C(O)C(=O)CBr` [3-BrPA, 3-bromopyruvate], the “Level of ATP” value in the assay with Vx-2 cell line (VX2, 3, 24, 48 hours) is “dose and time dependent decrease”; in the assay on Hep3B cells (3, 24, 48 hours), “dose and time dependent decrease”; in the assay with SK-Hep 1 cells (SK-Hep1, 3, 24, 48 hours), “dose and time dependent decrease”. Also, the concentration for half-maximal inhibition (IC50) in the assay with Vx-2 cell line (at 48 hours) worked out at 50 µM; with Vx-2 cell line (treatment time not given), 60 µM; with Hep3B cells (at 48 hours, read-out: IC50 (ATP depletion)), 125 µM; in the assay with SK-Hep 1 cells (SK-Hep 1, at 48 hours, read-out: IC50 (ATP depletion)) it was 125 µM. For the same compound, the “Annexin V positive cells (flow cytometry)” value in assay [1] (Annexin V-PE and 7-AAD staining, 100 and 200 μM) is “dose dependent increase”. Besides, the “Number of apoptotic cells compared with control” value in assay [1] (all cell lines, after 2 hours of treatment, 200 μM) is “significant increase”. In addition, the “Annexin V staining (photomicrographs)” value in assay [1] (treated vs control) was “elevated levels of Annexin V”. In addition, the “ATP level (bioluminescent quantification)” value in the assay with MCF7 cells was “dose and time dependent energy (ATP) depletion”.
